Reference: patent US10336746B1, “RAD51 inhibitors” (Cyteir Therapeutics, Inc., priority 2017, dated 2019)

Tests used:
[1] = system: Daudi cell line (AID positive); assay: Primary screening cell killing assay, Daudi cell line (AID positive); format: cell-based; conditions: Homo sapiens, 168 h, cell death on Day 7, Cell-Titer Glo
Description: (§1) Primary screening was a phenotypic screen that utilized the synthetic lethal interaction between AID and RAD51 to identify compounds that were both potent and on target. AID expressing cells are dependent upon RAD51 for survival; inhibiting RAD51 in AID positive cells results in a cytotoxic effect.
The first step was to set up a cell killing assay in the Daudi cell line (AID positive). A 96 well u-bottom plate was prepared by writing the experiment number, plate number, date and initials in the top right corner of the plate lid. With a sterile 300 ml reservoir, and 25 ml serological pipette, evaporation buffer media was pipetted into reservoir in 25 ml increments. Using the liquid handler, 150 ul of evaporation buffer media was pipetted from reservoir into rows A and H, and Columns 1 and 12 of the 96 well u-bottom plate. Cell cultures were counted to obtain the density of cells per ml, and the culture viability. The cell density information was used to obtain 1,000,000 cells from culture using a 5 mL serological pipette into an epi tube. The cell density information from the culture was used to calculate the number of cells and volume of media needed for the assay to seed 1250 cells in 130 ul of media per available culture well in the 96 well u-bottom plate. Rows B through F were used for cells (50 wells in total), with row G left for an empty media control. The calculation was overestimated by 10 mL to account for the dead volume in the 300 ml reservoir. Once the media volume was calculated, the appropriate volume of media was pipetted in 25 mL increments into the 250 mL bottle using a 25 mL serological pipette. The 250 ml bottle was capped tightly, and placed into a 37° C. water bath for 2 minutes. While the culture media was warming, 10 mL of fresh media was pipetted from the 500 mL culture media bottle into a sterile 25 mL reservoir. Using the Eppendorf multichannel pipette, 130 ul of media was pipetted from the 25 mL reservoir into row G of the 96 well u-bottom plate. Once the 250 mL bottle of media was warmed, the volume of culture needed was pipetted into the bottle, and mixed gently with a 25 mL serological pipette as to not create bubbles, and then the contents of the bottle were pipetted into a new 300 mL reservoir. Using the liquid handler, 130 ul of culture was pipetted from the 300 mL reservoir into rows B through F of the 96 well u-bottom plate. Once the culture was added, the plate was placed into a 37° C. incubator until the compound master plate was prepared for use.
Two 96 well u-bottom plates were prepared by writing the master plate name in the upper right corner of the plate lid. Labeling one DMSO master and the other Media Master. The compounds of interest were obtained from the laboratory freezer, and placed into a 25 well storage box with a lid, and set the box aside. The compounds were vortexed after thawing but before use. Using an automatic multichannel pipette, 20 ul of 100% DMSO was pipetted into wells B3-B11 through G3-G11 of the DMSO master plate. For each compound on the master plate, 50 ul of the compound were pipetted in the appropriate well of row 2 (reference plate map to determine appropriate well). A serial dilution was prepared beginning by aspirating 20 ul from row 2 and mixing with row 3, repeating until row 11 was reached. Using the liquid handler, 194 ul of Daudi media was dispensed into wells B2-B11 through G2-G11 of the Media master plate. Using the liquid handler, 6 ul from the DMSO master plate was aspirated and dispensed into the media master plate, mixing 100 ul twice.
Compounds from master plate were then added to the culture plate. The culture plates were removed from the incubator, and set inside the biosafety cabinet. Using a liquid handler, 20 ul from wells B2 to B11 through G2 to G11 of master plate were aspirated, and dispensed into wells B2 to B11 through G2 to G11 of culture plate. This set was continued with each culture plate. […]

[2] = system: WI-38 cells (AID negative); assay: Primary screening cell killing assay repeated in WI-38 cells (AID negative); format: cell-based; conditions: Homo sapiens, 168 h, cell death on Day 7, Cell-Titer Glo
Description: as §1
Percent cell death and EC50 values were calculated by comparing the cell viability of the compound treated wells to the non-treated wells. Normalized RLU values were obtained by subtracting the media well values from each of the wells in the same column, and then dividing that value by the DMSO treated cells values. The percent kill was then calculated by subtracting the normalized RLU value from 1 and multiplying by 100. The average normalized percent kill value and standard error of the mean was then calculated. The kill values were then inputted into Prism with the corresponding standard errors. In Prism a non-linear regression line was plotted with the data points using a semi-log scale, and the EC50 value was calculated.

Compound | EC50 [1] [nM] | EC50 [2] [nM]
CC(C)OC(=O)N[C@H]1CC[C@H](c2ncc(-c3ccc(NC(=O)N[C@H](C)c4ccccc4)cc3S(=O)(=O)NC(C)(C)C)s2)CC1 [Ex. 24] | ≤ 100 | > 1000
CC(C)NC(=O)OC12CCC(c3ncc(-c4ccc(NC(=O)NCc5ccccc5)cc4S(=O)(=O)NC(C)(C)C)s3)(CC1)CC2 [Ex. 61, [1-[5-[4-(benzylcarbamoylamino)-2-(tert-butylsulfamoyl)phenyl]thiazol-2-yl]-4-bicyclo[2.2.2]octanyl]N-isopropylcarbamate] | > 1000 | > 1000
CC(C)OC(=O)NC12CCC(c3ncc(-c4ccc(NC(=O)N[C@@H](C)c5ccccn5)cc4S(=O)(=O)NC(C)(C)C)s3)(CC1)CC2 [Ex. 15, isopropyl (S)-(4-(5-(2-(N-(tert-butyl)sulfamoyl)-4-(3-(1-(pyridin-2-yl)ethyl)ureido)phenyl)thiazol-2-yl)bicyclo[2.2.2]octan-1-yl)carbamate] | ≤ 100 | > 1000
CC(C)NC(=O)OC12CCC(c3ncc(-c4ccc(NC(=O)NCc5ccccn5)cc4S(=O)(=O)NC(C)(C)C)s3)(CC1)CC2 [Ex. 62, 4-(5-(2-(N-(tert-butyl)sulfamoyl)-4-(3-(pyridin-2-ylmethyl)ureido)phenyl)thiazol-2-yl)bicyclo[2.2.2]octan-1-yl isopropylcarbamate] | > 1000 | > 1000
CC(C)OC(=O)NC12CCC(c3ncc(-c4ccc(NC(=O)N[C@H](C)c5ccccc5)cc4S(=O)(=O)NC(C)(C)C)s3)(CC1)CC2 [Ex. 14, isopropyl (R)-(4-(5-(2-(N-(tert-butyl)sulfamoyl)-4-(3-(1-phenylethyl)ureido)phenyl)thiazol-2-yl)bicyclo[2.2.2]octan-1-yl)carbamate] | ≤ 100 | > 1000
CC(C)NC(=O)OC1CCN(c2ncc(-c3ccc(NC(=O)NCc4ccccc4)cc3S(=O)(=O)NC(C)(C)C)s2)CC1 [Ex. 3, [1-[5-[4-(benzylcarbamoylamino)-2-(tert-butylsulfamoyl)phenyl]thiazol-2-yl]-4-piperidyl] N-isopropylcarbamate] | ≤ 100 | > 1000
CC(C)OC(=O)N[C@H]1CC[C@H](c2ncc(-c3ccc(NC(=O)NCc4ccccc4)cc3S(=O)(=O)NC(C)(C)CO)s2)CC1 [Ex. 74, trans-isopropyl N-[4-[5-[4-(benzylcarbamoylamino)-2-[(2-hydroxy-1,1-dimethyl-ethyl)sulfamoyl]phenyl]thiazol-2-yl]cyclohexyl]carbamate] | ≤ 100 | > 1000
CC(C)OC(=O)NC1CCC(c2ncc(-c3ccc(NC(=O)O[C@@H](C)c4ccccc4)cc3S(=O)(=O)NC(C)(C)C)s2)CC1 (stereo partly drawn) [Ex. 41, (S)-1-phenylethyl (3-(N-(tert-butyl)sulfamoyl)-4-(2-((1r,4S)-4-((isopropoxycarbonyl)amino)cyclohexyl)thiazol-5-yl)phenyl)carbamate] | ≤ 100 | > 1000
CC(C)(C)NS(=O)(=O)c1cc(NC(=O)OC2COC2)ccc1-c1cnc([C@H]2CC[C@H](NC(=O)OC3COC3)CC2)s1 [Ex. 49, trans-oxetan-3-yl N-[3-(tert-butylsulfamoyl)-4-[2-[4-(oxetan-3-yloxycarbonylamino)cyclohexyl]thiazol-5-yl]phenyl]carbamate] | 100 to 1000 | > 1000
CC(C)OC(=O)N[C@H]1CC[C@H](c2ncc(-c3ccc(NC(=O)OCc4ccccc4F)cc3S(=O)(=O)NC(C)(C)C)s2)CC1 [Ex. 70, trans-isopropyl N-[4-[5-[2-(tert-butylsulfamoyl)-4-[(2-fluorophenyl)methoxycarbonylamino]phenyl]thiazol-2-yl]cyclohexyl]carbamate] | ≤ 100 | > 1000
CC(C)OC(=O)NC1CCC(c2ncc(-c3ccc(NC(=O)OCc4ccccc4F)cc3S(=O)(=O)NC(C)(C)C)s2)CC1 (stereo not shown) [Ex. 40, 2-fluorobenzyl (3-(N-(tert-butyl)sulfamoyl)-4-(2-((1r,4r)-4-((isopropoxycarbonyl)amino)cyclohexyl)thiazol-5-yl)phenyl)carbamate] | ≤ 100 | > 1000
CC(C)OC(=O)N1CCC(c2ncc(-c3ccc(NC(=O)NCc4ccccn4)cc3S(=O)(=O)NC(C)(C)C)s2)CC1 [Ex. 4, isopropyl 4-[5-[2-(tert-butylsulfamoyl)-4-(2-pyridylmethylcarbamoylamino)phenyl]thiazol-2-yl]piperidine-1-carboxylate] | > 1000 | > 1000
CC(C)OC(=O)NC1CCC(c2ncc(-c3ccc(NC(=O)O[C@H](C)c4ccccc4)cc3S(=O)(=O)NC(C)(C)C)s2)CC1 (stereo partly drawn) [Ex. 43, (R)-1-phenylethyl (3-(N-(tert-butyl)sulfamoyl)-4-(2-((1r,4R)-4-((isopropoxycarbonyl)amino)cyclohexyl)thiazol-5-yl)phenyl)carbamate] | 100 to 1000 | > 1000
CC(C)OC(=O)N[C@H]1CC[C@H](c2ncc(-c3ccc(NC(=O)OCc4ccccn4)cc3S(=O)(=O)NC(C)(C)C)s2)CC1 [Ex. 72, trans-2-pyridylmethyl N-[3-(tert-butylsulfamoyl)-4-[2-[4-(isopropoxycarbonylamino)cyclohexyl]thiazol-5-yl]phenyl]carbamate] | ≤ 100 | > 1000
CC(C)OC(=O)NC12CCC(c3ncc(-c4ccc(NC(=O)N[C@H](C)c5ccccn5)cc4S(=O)(=O)NC(C)(C)C)s3)(CC1)CC2 [Ex. 16, isopropyl (R)-(4-(5-(2-(N-(tert-butyl)sulfamoyl)-4-(3-(1-(pyridin-2-yl)ethyl)ureido)phenyl)thiazol-2-yl)bicyclo[2.2.2]octan-1-yl)carbamate] | ≤ 100 | > 1000
C[C@@H](NC(=O)Nc1ccc(-c2cnc(C3CCC(NC(=O)OC4COC4)CC3)s2)c(S(=O)(=O)NC(C)(C)C)c1)c1ccccc1F (stereo partly drawn) [Ex. 54, oxetan-3-yl ((1R,4r)-4-(5-(2-(N-(tert-butyl)sulfamoyl)-4-(3-((R)-1-(2-fluorophenyl)ethyl)ureido)phenyl)thiazol-2-yl)cyclohexyl)carbamate] | ≤ 100 | > 1000
CC(C)OC(=O)Nc1ccc(-c2cnc(C3CC(NC(=O)OC(C)C)C3)s2)c(S(=O)(=O)NC(C)(C)C)c1 (stereo not shown) [Ex. 65, isopropyl N-[3-(tert-butylsulfamoyl)-4-[2-[3-(isopropoxycarbonylamino)cyclobutyl]thiazol-5-yl]phenyl]carbamate] | 100 to 1000 | > 1000
CC(C)OC(=O)NC12CCC(c3ncc(-c4ccc(NC(=O)NCc5ccccn5)cc4S(=O)(=O)NC(C)(C)C)s3)(CC1)CC2 [Ex. 19, isopropyl (4-(5-(2-(N-(tert-butyl)sulfamoyl)-4-(3-(pyridin-2-ylmethyl)ureido)phenyl)thiazol-2-yl)bicyclo[2.2.2]octan-1-yl)carbamate] | ≤ 100 | > 1000
CC(C)OC(=O)N[C@H]1CC[C@H](c2ncc(-c3ccc(NC(=O)NCc4ccc(O)cc4)cc3S(=O)(=O)NC(C)(C)C)s2)CC1 [Ex. 73, trans-isopropyl N-[4-[5-[2-(tert-butylsulfamoyl)-4-[(4-hydroxyphenyl)methylcarbamoylamino]phenyl]thiazol-2-yl]cyclohexyl]carbamate] | ≤ 100 | > 1000
CC(C)OC(=O)NC1CCC(c2ncc(-c3ccc(NC(=O)OCc4ccccc4)cc3S(=O)(=O)NC(C)(C)C)s2)CC1 (stereo not shown) [Ex. 39, benzyl (3-(N-(tert-butyl)sulfamoyl)-4-(2-((1r,4r)-4-((isopropoxycarbonyl)amino)cyclohexyl)thiazol-5-yl)phenyl)carbamate] | ≤ 100 | > 1000
